Test results taken from PMC3038857, “Using Nuclear Receptor Activity to Stratify Hepatocarcinogens” (PLoS ONE, 2011).

What was measured:
CYP3A4 = assay: CLZD_CYP3A4: Change in expression of CYP3A4 (primary human hepatocytes); format: cell-based; details: 24 hr
Summary of the method: (§1)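 Cultured primary human hepatocytes treated with chemicals for 6, 24 or 48 hr across five concentrations spanning 0.004-40 µM, then transcript level measured by quantitative nuclease protection in a multiplexed format.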

PPARg (PPARG) = target: T1, PPARg (PPARG) (Homo sapiens, UniProt P37231); assay: NVS_NR_hPPARg: Human PPARg Fluorescent Ligand (cell-free HTS); format: binding
T1 sequence (P37231 1-505): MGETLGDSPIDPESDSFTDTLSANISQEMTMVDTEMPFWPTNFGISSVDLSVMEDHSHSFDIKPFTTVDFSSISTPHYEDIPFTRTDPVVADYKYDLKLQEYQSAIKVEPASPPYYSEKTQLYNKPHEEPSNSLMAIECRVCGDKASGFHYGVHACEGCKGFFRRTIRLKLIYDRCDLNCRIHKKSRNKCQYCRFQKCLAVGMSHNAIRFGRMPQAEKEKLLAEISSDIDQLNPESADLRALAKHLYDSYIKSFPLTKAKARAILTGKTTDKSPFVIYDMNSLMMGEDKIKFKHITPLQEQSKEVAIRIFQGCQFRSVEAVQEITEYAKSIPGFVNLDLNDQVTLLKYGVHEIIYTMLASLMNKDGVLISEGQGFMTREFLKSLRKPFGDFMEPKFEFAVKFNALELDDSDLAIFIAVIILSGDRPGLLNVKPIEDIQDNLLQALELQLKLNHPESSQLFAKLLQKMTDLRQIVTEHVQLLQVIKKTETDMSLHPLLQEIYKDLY
Excerpt: (§2) These are a collection of biochemical assays measuring binding constants and enzyme inhibition values. Chemicals were initially screened at a single concentration in duplicate wells at a concentration of 10 [drawing 63] M for cytochrome P-450 assays and 25 [drawing 64] M for all others. […] These assays were run by Caliper Life Sciences (Hanover, MD) under contract to EPA. Short assay descriptions are available at: http://www.caliperls.com/products/contract-research/in-vitro/.
(§3) Cell-free HTS Assays: A collection of biochemical assays measuring binding constants and enzyme inhibition values. […] These assays were run by Caliper Life Sciences (Hanover, MD) under contract to EPA. Short assay descriptions are available at http://www.caliperls.com/products/contract-research/in-vitro/. Values for all endpoints were imported into GeneData Screener (Basel, Switzerland) and normalised to solvent controls from the same plate as the tested compounds and expressed as percent of neutral control. Concentration-response curves were fit in GeneData Screener (Basel, Switzerland) Condeseo module using the Hill equation and AC50 values were determined. […] Detailed description of the methods, data and analysis methods for this dataset are described in a separate publication.

PXR (NR1I2) [1] = target: T2, PXR (NR1I2) (Homo sapiens, UniProt O75469); assay: NVS_NR_hPXR: Human PXR Fluormone PXR (SXR) green (cell-free HTS); format: binding
T2 sequence (O75469 1-434): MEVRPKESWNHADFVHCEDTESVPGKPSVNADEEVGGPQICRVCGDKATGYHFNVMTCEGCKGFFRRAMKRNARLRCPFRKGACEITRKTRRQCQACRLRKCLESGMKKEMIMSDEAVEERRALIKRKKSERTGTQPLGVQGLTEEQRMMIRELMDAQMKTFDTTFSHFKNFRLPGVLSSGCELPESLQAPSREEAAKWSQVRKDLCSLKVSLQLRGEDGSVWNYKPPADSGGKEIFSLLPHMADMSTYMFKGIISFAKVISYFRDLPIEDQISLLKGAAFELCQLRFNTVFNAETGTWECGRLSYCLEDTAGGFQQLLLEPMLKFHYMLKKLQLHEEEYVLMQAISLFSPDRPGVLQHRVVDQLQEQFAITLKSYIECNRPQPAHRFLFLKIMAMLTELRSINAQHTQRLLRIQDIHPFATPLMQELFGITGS
Summary of the method: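 Cell-free biochemical binding assays; chemicals first screened at a single concentration of 25 […] M in duplicate wells. Signals normalised to same-plate solvent controls as percent of neutral control, and AC50 values came from Hill-equation fits of concentration-response curves.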

CYP2B6 = assay: CLZD_CYP2B6: Change in expression of CYP2B6 (primary human hepatocytes); format: cell-based; details: 24 hr
Summary of the method: as §1

AR (androgen receptor) = assay: NVS_NR_hAR: Human AR 3H-Methyltrienolone (cell-free HTS); format: binding
Excerpt: as §2, §3

[2] = target: T3, PPARG (peroxisome proliferator-activated receptor gamma) (Homo sapiens, UniProt P37231); assay: ATG_PPARg_TRANS: Factorial reporter gene assay (HepG2); format: cell-based; details: HepG2
T3 construct: expressed in transfected cells; host or cells: HepG2
T3 sequence (P37231 1-505): T1 sequence (P37231 1-505)
Summary of the method: (§4)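 Compounds at seven concentrations (top at MTC, threefold serial) were applied to transfected HepG2 hepatoma cells, with PXRE scored by cis-element reporters and ERRg, FXR and PPARg scored by trans one-hybrid nuclear receptor reporters.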

PXR (NR1I2) [3] = target: T2, PXR (NR1I2); assay: ATG_PXRE_CIS: Factorial reporter gene assay (HepG2); format: cell-based; set-up: endogenous in cells; host or cells: HepG2; details: HepG2
Summary of the method: as §4

[4] = target: T4, PPARA (peroxisome proliferator-activated receptor alpha) (Homo sapiens, UniProt Q07869); assay: ATG_PPARa_TRANS: Factorial reporter gene assay (HepG2); format: cell-based; set-up: scale not given here
T4 construct: expressed in transfected cells; host or cells: HepG2
T4 sequence (Q07869 1-468): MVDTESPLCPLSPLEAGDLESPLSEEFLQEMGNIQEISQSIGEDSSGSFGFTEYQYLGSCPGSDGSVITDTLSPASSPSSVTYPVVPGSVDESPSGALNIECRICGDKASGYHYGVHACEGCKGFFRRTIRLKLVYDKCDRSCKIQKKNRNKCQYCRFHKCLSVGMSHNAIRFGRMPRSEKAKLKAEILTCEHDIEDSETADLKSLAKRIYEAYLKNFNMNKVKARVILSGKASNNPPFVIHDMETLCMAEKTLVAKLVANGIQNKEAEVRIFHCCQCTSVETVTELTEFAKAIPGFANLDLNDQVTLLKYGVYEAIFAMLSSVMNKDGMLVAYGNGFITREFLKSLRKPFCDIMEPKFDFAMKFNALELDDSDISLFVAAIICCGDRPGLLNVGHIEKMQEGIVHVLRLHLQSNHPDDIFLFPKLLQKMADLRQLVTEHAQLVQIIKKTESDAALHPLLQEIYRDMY
Protocol: A multiple reporter transcription unit (MRTU) library consisting of 48 transcription factor binding sites was transfected into the HepG2 human liver hepatoma cell line. In addition to the cis-acting reporter genes (CIS), a modification of the approach was used to generate a trans-system (TRANS) with a mammalian one-hybrid assay consisting of an additional 25 MRTU library reporting the activity of nuclear receptor super-family members. […] These assays were performed by Attagene Inc. (Morrisville NC) under contract to EPA.
In addition to the cis-acting reporter genes (CIS), a modification of the approach was used to generate a trans-system (TRANS) with a mammalian one-hybrid assay consisting of an additional 25 MRTU library reporting the activity of nuclear receptor super-family members. […] Chemicals were then tested in the CIS and TRANS assays at seven concentrations starting at the MTC and followed by three-fold serial dilutions. These assays were performed by Attagene Inc. (Morrisville NC) under contract to EPA. Detailed description of the methods, data and analysis methods for this dataset will be presented in a separate publication.

Compound	CLZD_CYP3A4_24 (CYP3A4)	NVS_NR_hPPARg (PPARg (PPARG))	NVS_NR_hPXR (PXR (NR1I2) [1])	CLZD_CYP2B6_24 (CYP2B6)	NVS_NR_hAR (AR (androgen receptor))	ATG_PPARg_TRANS [2]	ATG_PXRE_CIS (PXR (NR1I2) [3])	ATG_PPARa_TRANS [4]
O=S(=O)(O)C(F)(F)C(F)(F)C(F)(F)C(F)(F)C(F)(F)C(F)(F)C(F)(F)C(F)(F)F [r240]	4.541	4.932	4.496	4.97	4.625	4.585	4.745	–
O=C(O)C(F)(F)C(F)(F)C(F)(F)C(F)(F)C(F)(F)C(F)(F)C(F)(F)F [r241]	–	–	–	–	–	–	4.367	4.377
